Tests used:
[1] = target: Recombinant human Aurora B (amino acids 1-344) (Homo sapiens (Human), UniProt Q96GD4); test: Aurora B kinase test (ADP Glo); assay type: biochemical; conditions: for IC50: read-out: AURB inhibition IC50-value (chapter 5.3)
Method: (§1) The activity of the Aurora B kinase protein was determined using the ADP Glo® Luminescence Kinase test (Promega; V9103X). In this homogeneous test the amount of ADP remaining after the kinase reaction is quantified by a luciferin-luciferase reaction using luminescence. The luminescence signal obtained correlates with the amount of ADP still present and thus correlates with the activity of the protein kinase.
The test compounds were dissolved in 100% DMSO at a concentration of 10 mM and diluted in DMSO to a concentration of 5 mM. Serial Dilution is done in 1:10 steps in 100% DMSO. All further dilutions of the substances were carried out with test buffer (50 mM Hepes, pH 7.5, 10 mM MgCl2, 1 mM EGTA, 60 μM Ultra Pure ATP, 0.01% Brij35, 0.1% BSA, 5 mM 8-Glycerophosphate) until a concentration was reached which was 2.5 times above the final test concentration (final concentration of the compounds: 50 μM to 0.005 nM). 4 μl aliquots of these dilutions were transferred into a 384-well Optiplate (Perkin Elmer, #6007290). His-Aurora B was diluted to 125 nM in the test buffer and 4 μl of this dilution were used in the kinase test (final concentration of Aurora B=50 nM in a total volume of 10 μl). After 15 minutes incubation at room temperature 2 μl of 250 μM substrate ([[…]]; University of Dundee) in test buffer were added to each well and the incubation was continued for a further 60 minutes at room temperature.
(§2) Positive controls are the reaction mixtures that contain no test substance; negative controls (blanks) are reaction mixtures that contain no kinase.
(§3) After 60 minutes, 10 μl ADP-Glo® solution (ADP-Glo Reagent #V912B Promega) (heated to room temperature) were added to each well and incubation was continued for a further 40. minutes. Then 20 μl Kinase detection mix (Detection Buffer #V913B Promega; Kinase Detection Substrate #V914B Promega) were added and incubated for 40 minutes at room temperature. The plates were read in Envision Luminescence Reader (Perkin-Elmer).
(§4) The output file of the reader is a csv file that contains the well number and measured RLU. For data evaluation and calculation, the measurement of the negative control was set as 0% ctrl and the measurement of the positive control was set as 100% ctrl. Based on this values the % value for the measurement of each substance concentration can be calculated using an Assay Explorer software (e.g. Accelrys). Normally, the % ctrl values calculated are between 0% and 100% values but may also occur outside these limits in individual cases based on variability or compound characteristics. The IC50-values were calculated from the % ctrl values using Assay Explorer software. Calculation: [y=(a−d)/(1+(x/c)^b)+d], a=low value, d=high value; x=conc M; c=IC50 M; b=hill; y=% ctrl.

[2] = target: Recombinant human FLT3 (amino acids 564-958) (Homo sapiens (Human), UniProt P36888); test: FLT3 kinase test (ADP Glo); assay type: biochemical; conditions: read-out: FLT3 inhibition IC50-value (chapter 5.4)
Chain of Recombinant human FLT3 (amino acids 564-958) (P36888 564-958): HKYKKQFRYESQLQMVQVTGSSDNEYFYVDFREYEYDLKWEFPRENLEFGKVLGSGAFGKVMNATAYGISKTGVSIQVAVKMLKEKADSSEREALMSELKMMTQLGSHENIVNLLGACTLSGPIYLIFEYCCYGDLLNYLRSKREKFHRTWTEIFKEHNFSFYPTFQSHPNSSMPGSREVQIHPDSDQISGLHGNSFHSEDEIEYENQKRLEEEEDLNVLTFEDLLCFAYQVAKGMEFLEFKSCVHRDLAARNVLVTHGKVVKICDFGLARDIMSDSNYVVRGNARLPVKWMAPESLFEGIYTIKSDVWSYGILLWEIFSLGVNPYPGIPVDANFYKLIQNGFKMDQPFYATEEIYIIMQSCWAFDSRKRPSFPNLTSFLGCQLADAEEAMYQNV
Method: as §1, with “FLT3” for “Aurora B”
The test compounds were dissolved in 100% DMSO at a concentration of 10 mM and diluted in DMSO to a concentration of 5 mM. Serial Dilution is done in 1:10 steps in 100% DMSO. All further dilutions of the substances were carried out with test buffer (50 mM Hepes, pH 7.5, 10 mM MgCl2, 1 mM EGTA, 0.01% Brij35, 0.1% BSA) until a concentration was reached which was 2.5 times above the final test concentration (final concentration of the compounds: 50 μM to 0.005 nM). […] FLT3 enzyme was diluted to 5 nM in the test buffer and 4 μl of this dilution were used in the kinase test (final concentration of FLT3=2 nM in a total volume of 10 μl). After 60 minutes incubation at room temperature 2 μl mixture of 2.5 mg/ml substrate (Poly-Glu/Tyr; Sigma #P0275) and 2.5 mM ultra-pure ATP (Promega #V915B) in test buffer were added to each well and the incubation was continued for a further 90 minutes at room temperature.
as §2
as §3, with “90” for “60”, “60.” for “40.”
as §4, with “IC50 values” for “IC50-values”, “x=conc.” for “x=conc”

Chain of Recombinant human Aurora B (amino acids 1-344) (Q96GD4 whole entry, the tested form may be a part): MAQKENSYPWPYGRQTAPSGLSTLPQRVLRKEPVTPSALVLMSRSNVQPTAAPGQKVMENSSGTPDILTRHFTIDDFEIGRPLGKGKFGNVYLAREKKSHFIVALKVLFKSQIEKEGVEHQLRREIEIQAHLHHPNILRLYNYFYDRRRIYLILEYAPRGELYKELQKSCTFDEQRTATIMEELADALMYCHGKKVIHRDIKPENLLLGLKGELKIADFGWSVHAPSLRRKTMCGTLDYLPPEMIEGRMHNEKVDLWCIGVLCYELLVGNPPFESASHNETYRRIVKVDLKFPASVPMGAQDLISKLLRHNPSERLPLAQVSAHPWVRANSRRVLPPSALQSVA

SMILES: C[C@@H](Oc1cc(-c2cnn(C3CCC3)c2)cc2nn(C)c(F)c12)[C@H]1CNC(=O)C1 [Example 1, (R)-4-{(R)-1-[6-(1-Cyclobutyl-1H-pyrazol-4-yl)-3-fluoro-2-methyl-2H-indazol-4-yloxy]-ethyl}-pyrrolidin-2-one]
- selectivity ratio IC50(AURB)/IC50(SYK) [1]: 34800
- IC50 [1]: 34.8 µM
- IC50 [2]: 2.23 µM

SMILES: CC(C)n1cc(-c2cc(O[C@H](C)[C@H]3CNC(=O)C3)c3c(F)n(C)nc3c2)cn1 [Example 2, (R)-4-{(R)-1-[3-Fluoro-6-(1-isopropyl-1H-pyrazol-4-yl)-2-methyl-2H-indazol-4-yloxy]-ethyl}-pyrrolidin-2-one]
- selectivity ratio IC50(AURB)/IC50(SYK) [1]: 23955
- IC50 [1]: 31.1 µM
- IC50 [2]: 2.83 µM

SMILES: Cc1c2c(O[C@H](C)[C@H]3CNC(=O)O3)nc(-c3cnn(C(C)(C)C)c3)cc2nn1C [Example 3, (R)-5-{(R)-1-[6-(1-tert-Butyl-1H-pyrazol-4-yl)-2,3-dimethyl-2H-pyrazolo[4,3-c]pyridin-4-yloxy]-ethyl}-oxazolidin-2-one]
- selectivity ratio IC50(AURB)/IC50(SYK) [1]: 15731
- IC50 [1]: 31.5 µM
- IC50 [2]: 1.34 µM

SMILES: Cc1c2c(O[C@H](C)[C@H]3CNC(=O)C3)nc(-c3c[nH]nc3C(C)(C)C)cc2nn1C [Example 4, (R)-4-{(R)-1-[6-(3-tert-Butyl-1H-pyrazol-4-yl)-2,3-dimeth-yl-2H-pyrazolo[4,3-c]pyridin-4-yloxy]-ethyl}-pyrrolidin-2-one]
- selectivity ratio IC50(AURB)/IC50(SYK) [1]: 29636
- IC50 [1]: 65.2 µM
- IC50 [2]: 7.41 µM

SMILES: C[C@@H](Oc1cc(-c2cnn(C3CC3)c2)cc2nn(C)c(F)c12)[C@H]1CNC(=O)C1 [Example 5, (R)-4-{(R)-1-[6-(1-Cycloprop-yl-1H-pyrazol-4-yl)-3-fluoro-2-methyl-2H-indazol-4-yloxy]-ethyl}-pyrrolidin-2-one]
- selectivity ratio IC50(AURB)/IC50(SYK) [1]: 15152
- IC50 [1]: 50 µM
- IC50 [2]: 3.99 µM

SMILES: C[C@@H](Oc1cc(-c2cnn(CC3CC3)c2)cc2nn(C)c(F)c12)[C@H]1CNC(=O)C1 [Example 6, (R)-4-{(R)-1-[6-(1-Cycloprop-ylmethyl-1H-pyrazol-4-yl)-3-fluoro-2-methyl-2H-indazol-4-yloxy]-ethyl}-pyrrolidin-2-one]
- selectivity ratio IC50(AURB)/IC50(SYK) [1]: 13115
- IC50 [1]: 34.1 µM
- IC50 [2]: 3.73 µM

SMILES: C[C@@H](Oc1cc(-c2cnn(C3CCC(F)(F)C3)c2)cc2nn(C)c(F)c12)[C@H]1CNC(=O)C1 (stereo partly drawn) [Example 7]
- selectivity ratio IC50(AURB)/IC50(SYK) [1]: 20154
- IC50 [1]: 26.2 µM
- IC50 [2]: 2.44 µM

SMILES: Cc1c2c(O[C@H](C)[C@H]3CNC(=O)C3)cc(-c3cnn(CC4CC4)c3)cc2nn1C [Example 8, (R)-4-{(R)-1-[6-(1-Cyclopropylmethyl-1H-pyrazol-4-yl)-2,3-dimethyl-2H-indazol-4-yloxy]-ethyl}-pyrrolidin-2-one]
- selectivity ratio IC50(AURB)/IC50(SYK) [1]: 15080
- IC50 [1]: 21.1 µM
- IC50 [2]: 2.07 µM

SMILES: Cc1c2c(O[C@H](C)[C@H]3CNC(=O)C3)cc(-c3cnn([C@@H]4CCOC(C)(C)C4)c3)cc2nn1C [Example 9, (R)-4-((R)-1-{6-[1-((R)-2,2-Dimethyl-tetrahydro-pyran-4-yl)-1H-pyrazol-4-yl]-2,3-dimethyl-2H-indazol-4-yloxy}-ethyl)-pyrrolidin-2-one]
- selectivity ratio IC50(AURB)/IC50(SYK) [1]: 21219
- IC50 [1]: 23.3 µM
- IC50 [2]: 1.84 µM

SMILES: Cc1c2c(O[C@H](C)[C@H]3CNC(=O)C3)cc(-c3cnn([C@H]4CO[C@@H]5CCCO[C@@H]54)c3)cc2nn1C [Example 10, 4-(1-{6-[(R)-(3S,3aR,7aR)-1-(Hexahydro-furo[3,2-b]pyran-3-yl)-1H-pyrazol-4-yl]-2,3-dimethyl-2H-indazol-4-yloxy}-ethyl)-pyrrolidin-2-one]
- selectivity ratio IC50(AURB)/IC50(SYK) [1]: 10312
- IC50 [1]: 34 µM
- IC50 [2]: 2.02 µM

SMILES: Cc1c2c(O[C@H](C)[C@H]3CNC(=O)C3)cc(-c3cnn(CCF)c3)cc2nn1C [Example 11, (R)-4-((R)-1-{6-[1-(2-Fluoro-ethyl)-1H-pyrazol-4-yl]-2,3-dimethyl-2H-indazol-4-yloxy}-ethyl)-pyrrolidin-2-one]
- selectivity ratio IC50(AURB)/IC50(SYK) [1]: 20800
- IC50 [1]: 31.2 µM
- IC50 [2]: 3.48 µM

SMILES: C[C@@H](Oc1cc(-c2cnn(CCC(F)(F)F)c2)cc2nn(C)c(F)c12)[C@H]1CNC(=O)C1 [Example 12, (R)-4-((R)-1-{3-Fluoro-2-methyl-6-[1-(3,3,3-trifluoro-propyl)-1H-pyrazol-4-yl]-2H-indazol-4-yloxy}-ethyl)-pyrrolidin-2-one]
- selectivity ratio IC50(AURB)/IC50(SYK) [1]: 10207
- IC50 [1]: 29.6 µM
- IC50 [2]: 5.03 µM

SMILES: Cc1c2c(O[C@H](C)[C@H]3CNC(=O)C3)cc(-c3cnn(C(C)(C)C)c3)cc2nn1C [Example 13, (R)-4-{(R)-1-[6-(1-tert-Butyl-1H-pyrazol-4-yl)-2,3-dimethyl-2H-indazol-4-yloxy]-ethyl}-pyrrolidin-2-one]
- selectivity ratio IC50(AURB)/IC50(SYK) [1]: 39982
- IC50 [1]: 36 µM
- IC50 [2]: 5.22 µM

SMILES: C[C@@H](Oc1cc(-c2cnn(C3CC(C)(C)OC3(C)C)c2)cc2nn(C)c(F)c12)[C@H]1CNC(=O)C1 (stereo partly drawn) [Example 14, (R)-4-((R)-1-{3-Fluoro-2-methyl-6-[1-(2,2,5,5-tetramethyl-tetrahydro-furan-3-yl)-1H-pyrazol-4-yl]-2H-indazol-4-yloxy}-ethyl)-pyrrolidin-2-one]
- selectivity ratio IC50(AURB)/IC50(SYK) [1]: 15625
- IC50 [1]: 50 µM
- IC50 [2]: 4.05 µM

SMILES: Cc1c2c(O[C@H](C)[C@H]3CNC(=O)C3)cc(-c3cnn(C4CC(C)(C)OC4(C)C)c3)cc2nn1C (stereo partly drawn) [Example 16, (R)-4-((R)-1-{2,3-Dimethyl-6-[1-(2,2,5,5-tetramethyl-tetrahydro-furan-3-yl)-1H-pyrazol-4-yl]2H-indazol-4-yloxy}-ethyl)-pyrrolidin-2-one]
- selectivity ratio IC50(AURB)/IC50(SYK) [1]: 14323
- IC50 [1]: 44.4 µM
- IC50 [2]: 3.49 µM

SMILES: Cc1c2c(O[C@H](C)[C@H]3CNC(=O)C3)cc(-c3cnn(C(C)(C)C#N)c3)cc2nn1C [Example 17, 2-(4-{2,3-Dimethyl-4-[(R)-1-((R)-5-oxo-pyrrolidin-3-yl)-ethoxy]-2H-indazol-6-yl}-pyrazol-1-yl)-2-methyl-propionitrile]
- selectivity ratio IC50(AURB)/IC50(SYK) [1]: 17241
- IC50 [1]: 50 µM
- IC50 [2]: 11.3 µM

SMILES: Cc1c2c(O[C@H](C)[C@H]3CNC(=O)C3)cc(-c3cnn(C(C)C)c3)cc2nn1C [Example 18, (R)-4-{(R)-1-[6-(1-Isopropyl-1H-pyrazol-4-yl)-2,3-dimethyl-2H-indazol-4-yloxy]-ethyl}-pyrrolidin-2-one]
- selectivity ratio IC50(AURB)/IC50(SYK) [1]: 18323
- IC50 [1]: 20.2 µM
- IC50 [2]: 4.67 µM
